The values below come from patent US20200046648A1, “POLYMERIC NANOPARTICLES COMPRISING SALINOMYCIN” (priority 2018, published 2020).

For data set [1], the system named is CD44+/CD24low cells. Briefly: Flow cytometric identification of cancer stem cells from a TNBC patient. In kind it is cell-based. Conditions: TNBC patient tumor derived spheroid cultures; 72 hours; FACS. As to the method:
Flow cytometric identification of cancer stem cells (CSCs) by CD24-PE & CD44-FITC antibody staining in triple negative breast cancer (TNBC) patient tumor derived cells cultured as spheroid cultures and then treated with the indicated drugs for72h. Following 72 hours of treatment of the mammospheres, cells were dissociated with Acutase treatment. Following washing, cells were stained with CD24-PE & CD44-FITC antibody, washed and analyzed by FACS. The subpopulation of CD44+/CD24-low cells were gated and quantified.
In general terms: In flow cytometry, cells or beads pass a laser one at a time.

The nature of data set [2]: Preliminary toxicity study, histopathology by H & E staining. In kind it is in vivo, CD2 male mice. As to the method:
(§1) A study was conducted in wild-type CD2 male mice to evaluate and compare the effects of salinomycin (SAL) at three different concentrations and compared to a formulation of SAL in biodegradable tetra-block polymeric nanoparticles.
(§2) MICE 20-25 g male CD2 mice between the ages 6 to 8 weeks from Taconic were used. The animals were acclimatized for five days before initiating the study.
(§3) Animals were injected intravenously either with 5.0 mg/kg, 8.5 mg/kg, or 12.5 mg/kg of SAL or SAL-NPs once, according to Table 1 below. Control animals were treated with PBS.
(§4) Tolerability of the drug by animals was measured via clinical, weight and behavioral changes. The compounds were administered once on day 1. Seven days following administration, all animals were euthanized and blood was collected for a complete blood chemistry and hematology analysis (see Table 2 and 3 below). Post mortem was conducted to examine all of the animals. Different organs (brain, heart, lung, liver, spleen, stomach, intestine, kidney, and skin) were also isolated for histo-pathological evaluation by H & E staining.
All the animals did well in the study, except the Salinomycin 12.5 mg/kg group. The histopathological studies were conducted on brain, heart, lung, liver, spleen, stomach, intestine, kidney, muscles, and skin tissues by H & E staining. […]

A short description of data set [3]: Comparative toxicity in wild-type mice. In kind it is in vivo. As to the method:
The effect of nanoparticles in mitigating the toxicity of salinomycin was examined in wild-type mice. Different doses of salinomycin alone (5, 7.5, 10, 12.5 and 15 mg/kg) or salinomycin-nanoparticles (SAL-NP) (5, 7.5, 10, 12.5 and 15 mg/kg) were injected into wild-type mice. Three mice were used in each group of salinomycin alone and salinomycin-NP groups, body weights, food and water uptake were measured every day for 22 days.

Data set [4] in a line: Preliminary toxicity study, post mortem observations. The format is in vivo, CD2 male mice. Conditions: day 7. As to the method: as §1, §2, §3, §4
On day 7 of the study, a post mortem inspection was conducted on each and every animal. […] There was slight enlargement observed on the fascia around the testis.

Entries after “also recorded” stand apart in the source; their conditions may differ.

Take `CC(=O)O[C@H]1C(=O)[C@@]2(C)[C@H]([C@H](OC(=O)c3ccccc3)[C@]3(O)C[C@H](OC(=O)[C@H](O)[C@@H](NC(=O)c4ccccc4)c4ccccc4)C(C)=C1C3(C)C)[C@]1(OC(C)=O)CO[C@@H]1C[C@@H]2O` [Paclitaxel]: in data set [1], the “effect on CD44+/CD24low cells” value is listed as “not much effect”.

For `CC[C@@H](C(=O)[C@@H](C)[C@@H](O)[C@H](C)[C@@H]1O[C@@H]([C@@H](CC)C(=O)O)CC[C@@H]1C)[C@H]1O[C@]2(C=C[C@@H](O)[C@]3(CC[C@@](C)([C@H]4CC[C@](O)(CC)[C@H](C)O4)O3)O2)[C@H](C)C[C@@H]1C` [SAL, salinomycin], the “organ toxicity (conclusion)” value in data set [2] (5, 8.5, 12.5 mg/kg i.v. once, day 7) was “toxicity to the liver, kidney, testis, and epididymis”. In addition, the “microscopical examination of all the tissues” value in data set [2] (mouse, in vivo) is “changes were observed in the kidney, liver, testis and epididymis”. For the same compound, the survival entry is recorded as “five” in data set [3] (10 mg/kg) and “three” in data set [3] (12.5 mg/kg). Further, the “survival (day of the study)” value in data set [3] (15 mg/kg) is “died after day 3”. Further, the Post-mortem findings result is “did not show any observable changes; also recorded: No Changes observed” in data set [4] (5 mg/kg i.v. once); “slightly reddish and slightly enlarged testis; also recorded: testis with redness; also recorded: No Changes observed” in data set [4] (8.5 mg/kg i.v. once); “reddening of the fascia surrounding testis; also recorded: Epidydimus enalrged” in data set [4] (12.5 mg/kg i.v. once).
